Values of other authors, collected in patent publication US20070184084A1, “IMPLANTABLE ELASTOMERIC CAPROLACTONE DEPOT COMPOSITIONS AND USES THEREOF” (priority 2003, published 2007).

Conditions: reported value

- solubility in water: 7.17 grams in 100 ml of water
SMILES: CC(=O)OCC(COC(C)=O)OC(C)=O [triacetin]
